# Assays:
# NCI-H460 = test: NCI one-dose screening, non-small cell lung cancer NCI-H460; assay type: cell-based, human; details: 10 μM
# OVCAR-5 = test: NCI one-dose screening, ovarian cancer OVCAR-5; assay type: cell-based, human; details: 10 μM
# human tumor cell lines = test: NCI one-dose screening, Mean / Delta / Range of growth percent over all tested cell lines; assay type: cell-based; details: 10 μM
# U251 = test: NCI one-dose screening, CNS cancer U251; assay type: cell-based, human; details: 10 μM
# M14 = test: NCI one-dose screening, melanoma M14; assay type: cell-based, human; details: 10 μM
# NCl/ADR-RES = test: NCI one-dose screening, breast cancer NCl/ADR-RES; assay type: cell-based, human; details: 10 μM; listed under Ovarian cancer
# SNB-19 = test: NCI one-dose screening, CNS cancer SNB-19; assay type: cell-based, human; details: 10 μM
# NCI-H322M = test: NCI one-dose screening, non-small cell lung cancer NCI-H322M; assay type: cell-based, human; details: 10 μM; Non-small cell lung cancer
# MDA-MB-468 = test: NCI one-dose screening, breast cancer MDA-MB-468; assay type: cell-based, human; details: 10 μM
# CAKI-1 = test: NCI one-dose screening, renal cancer CAKI-1; assay type: cell-based, human; details: 10 μM
# OVCAR-3 = test: NCI one-dose screening, ovarian cancer OVCAR-3; assay type: cell-based, human; details: 10 μM
# NCI-H23 = test: NCI one-dose screening, non-small cell lung cancer NCI-H23; assay type: cell-based, human; details: 10 μM
# HOP-92 = test: NCI one-dose screening, non-small cell lung cancer HOP-92; assay type: cell-based, human; details: 10 μM
# 786-O = test: NCI one-dose screening, renal cancer 786-O; assay type: cell-based, human; details: 10 μM
# T-47D = test: NCI one-dose screening, breast cancer T-47D; assay type: cell-based, human; details: 10 μM
# SF-295 = test: NCI one-dose screening, CNS cancer SF-295; assay type: cell-based, human; details: 10 μM
# MALME-3M = test: NCI one-dose screening, melanoma MALME-3M; assay type: cell-based, human; details: 10 μM
# NCI-H522 = test: NCI one-dose screening, non-small cell lung cancer NCI-H522; assay type: cell-based, human; details: 10 μM
# OVCAR-8 = test: NCI one-dose screening, ovarian cancer OVCAR-8; assay type: cell-based, human; details: 10 μM
# DU145 = test: NCI one-dose screening, prostate cancer DU145; assay type: cell-based, human; details: 10 μM
# SK-MEL-2 = test: NCI one-dose screening, melanoma SK-MEL-2; assay type: cell-based, human; details: 10 μM
# SN12C = test: NCI one-dose screening, renal cancer SN12C; assay type: cell-based, human; details: 10 μM
# COLO 205 = test: NCI one-dose screening, colon cancer COLO 205; assay type: cell-based, human; details: 10 μM
# SF-539 = test: NCI one-dose screening, CNS cancer SF-539; assay type: cell-based, human; details: 10 μM
# KM12 = test: NCI one-dose screening, colon cancer KM12; assay type: cell-based, human; details: 10 μM
# HCT-15 = test: NCI one-dose screening, colon cancer HCT-15; assay type: cell-based, human; details: 10 μM
# A549/ATCC = test: NCI one-dose screening, non-small cell lung cancer A549/ATCC; assay type: cell-based, human; details: 10 μM
# SK-OV-3 = test: NCI one-dose screening, ovarian cancer SK-OV-3; assay type: cell-based, human; details: 10 μM
# UO-31 = test: NCI one-dose screening, renal cancer UO-31; assay type: cell-based, human; details: 10 μM
# IGROV1 = test: NCI one-dose screening, ovarian cancer IGROV1; assay type: cell-based, human; details: 10 μM
# UACC-257 = test: NCI one-dose screening, melanoma UACC-257; assay type: cell-based, human; details: 10 μM
# MOLT-4 = test: NCI one-dose screening, leukemia MOLT-4; assay type: cell-based, human; details: 10 μM
# CCRF-CEM = test: NCI screening platform one-dose single concentration screening, leukemia CCRF-CEM; assay type: cell-based, human; details: 10 μM
# ACHN = test: NCI one-dose screening, renal cancer ACHN; assay type: cell-based, human; details: 10 μM
# SK-MEL-5 = test: NCI one-dose screening, melanoma SK-MEL-5; assay type: cell-based, human; details: 10 μM
# MCF7 = test: NCI one-dose screening, breast cancer MCF7; assay type: cell-based, human; details: 10 μM
# UACC-62 = test: NCI one-dose screening, melanoma UACC-62; assay type: cell-based, human; details: 10 μM
# LOX IMVI = test: NCI one-dose screening, melanoma LOX IMVI; assay type: cell-based, human; details: 10 μM
# MDA, -MB-435 = test: NCI one-dose screening, breast cancer MDA, -MB-435; assay type: cell-based, human; details: 10 μM; listed under Melanoma
# SR = test: NCI one-dose screening, leukemia SR; assay type: cell-based, human; details: 10 μM
# HS 578-T = test: NCI one-dose screening, breast cancer HS 578-T; assay type: cell-based, human; details: 10 μM; Breast cancer
# [1] = test system: PC-3 prostate cancer cell line; test: SRB assay cell viability, PC-3 prostate cancer cell line; assay type: cell-based, human; details: PC-3 prostate cancer cell line, Table II prints no unit, μM printed, read-out: SRB assay: 50% inhibition of cancer cell proliferation of sample concentration (IC50) of PC-3 prostate cancer cell line
# MDA-MB-231/ATCC = test: NCI one-dose screening, breast cancer MDA-MB-231/ATCC; assay type: cell-based, human; details: 10 μM
# HCT-116 = test: NCI one-dose screening, colon cancer HCT-116; assay type: cell-based, human; details: 10 μM
# [2] = NCI one-dose screening, renal cancer A489; assay type: cell-based, human; details: 10 μM
# HL-60, TB = test: NCI one-dose screening, leukemia HL-60, TB; assay type: cell-based, human; details: 10 μM
# K562cell line = test: NCI one-dose screening, leukemia K562; assay type: cell-based, human; details: 10 μM
# SF-268 = test: NCI one-dose screening, CNS cancer SF-268; assay type: cell-based, human; details: 10 μM
# HOP-62 = test: NCI one-dose screening, non-small cell lung cancer HOP-62; assay type: cell-based, human; details: 10 μM
# PRMI-8226 cell line = test: NCI one-dose screening, leukemia PRMI-8226; assay type: cell-based, human; details: 10 μM
# HCC-2998 = test: NCI one-dose screening, colon cancer HCC-2998; assay type: cell-based, human; details: 10 μM
# SNB-75 = test: NCI one-dose screening, CNS cancer SNB-75; assay type: cell-based, human; details: 10 μM
# SK-MEL-28 = test: NCI one-dose screening, melanoma SK-MEL-28; assay type: cell-based, human; details: 10 μM
# RXF, 393 = test: NCI one-dose screening, renal cancer RXF, 393; assay type: cell-based, human; details: 10 μM
# OVCAR-4 = test: NCI one-dose screening, ovarian cancer OVCAR-4; assay type: cell-based, human; details: 10 μM
# HT29 = test: NCI one-dose screening, colon cancer HT29; assay type: cell-based, human; details: 10 μM
# TK-10 = test: NCI one-dose screening, renal cancer TK-10; assay type: cell-based, human; details: 10 μM
structure (smiles),measurement,setting,value
"O=C1c2ccccc2C(=O)c2c1ccc1nsnc21 [C1, Anthraquinone[2,1-c][1,2,5]thiadiazol-6,11-dione]",Growth Percent NCI-H460,NCI-H460,125.82%
same,Growth Percent OVCAR-5,OVCAR-5,−20.07%
same,Growth Percent Delta,human tumor cell lines; delta over all cell lines,102.68%
same,Growth Percent Mean,human tumor cell lines; mean over all cell lines,2.68%
same,Growth Percent Range,human tumor cell lines; range over all cell lines,230.09%
same,Growth Percent U251,U251,−89.26%
same,Growth Percent M14,M14,74.54%
same,Growth Percent NCI/ADR-RES,NCl/ADR-RES,−2.53%
same,Growth Percent SNB-19,SNB-19,78.98%
same,Growth Percent NCI-H322M,NCI-H322M,16.07%
same,Growth Percent MDA-MB-468,MDA-MB-468,−73.17%
same,Growth Percent CAKI-1,CAKI-1,1.97%
same,Growth Percent OVCAR-3,OVCAR-3,−15.47%
same,Growth Percent NCI-H23,NCI-H23,97.80%
same,Growth Percent HOP-92,HOP-92,−100.00%
same,Growth Percent 786-0,786-O,−25.98%
same,Growth Percent T-47D,T-47D,−45.52%
same,Growth Percent SF-295,SF-295,126.17%
same,Growth Percent MALME-3M,MALME-3M,−71.64%
same,Growth Percent NCI-H522,NCI-H522,77.41%
same,Growth Percent OVCAR-8,OVCAR-8,−10.07%
same,Growth Percent DU145,DU145,40.76%
same,Growth Percent SK-MEL-2,SK-MEL-2,−73.16%
same,Growth Percent SN12C,SN12C,−73.27%
same,Growth Percent COLO 205,COLO 205,111.54%
same,Growth Percent SF-539,SF-539,−47.11%
same,Growth Percent KM12,KM12,98.60%
same,Growth Percent HCT-15,HCT-15,1.48%
same,Growth Percent A549/ATCC,A549/ATCC,104.19%
same,Growth Percent SK-OV-3,SK-OV-3,100.70%
same,Growth Percent UO-31,UO-31,−79.30%
same,Growth Percent IGROV1,IGROV1,−88.34%
same,Growth Percent UACC-257,UACC-257,−83.07%
same,Growth Percent MOLT-4,MOLT-4,−40.09%
same,Growth Percent CCRF-CEM,CCRF-CEM,−30.81%
same,Growth Percent ACHN,ACHN,−94.31%
same,Growth Percent SK-MEL-5,SK-MEL-5,8.52%
same,Growth Percent MCF7,MCF7,−50.74%
same,Growth Percent UACC-62,UACC-62,−82.32%
same,Growth Percent LOX IMVI,LOX IMVI,−50.63%
same,Growth Percent MDA-MB-435,"MDA, -MB-435",−87.88%
same,Growth Percent SR,SR,4.96%
same,Growth Percent HS 578T,HS 578-T,7.40%
same,IC50,[1],2.5 µM
same,Growth Percent MDA-MB-231/ATCC,MDA-MB-231/ATCC,−17.33%
same,Growth Percent HCT-116,HCT-116,−50.00%
same,Growth Percent A498,[2],130.09%
same,Growth Percent HL-60(TB),"HL-60, TB",−21.77%
same,Growth Percent K562,K562cell line,49.61%
same,Growth Percent SF-268,SF-268,16.29%
same,Growth Percent HOP-62,HOP-62,103.18%
same,Growth Percent RPMI-8226,PRMI-8226 cell line,−27.97%
same,Growth Percent HCC-2998,HCC-2998,−0.74%
same,Growth Percent SNB-75,SNB-75,79.03%
same,Growth Percent SK-MEL-28,SK-MEL-28,15.47%
same,Growth Percent RXF 393,"RXF, 393",20.11%
same,Growth Percent OVCAR-4,OVCAR-4,−94.43%
same,Growth Percent HT29,HT29,116.95%
same,Growth Percent TK-10,TK-10,96.99%

# Source: US8877748B2, “Heterocyclic fused anthraquinone derivatives, manufacturing method and pharmaceutical composition using thereof” (National Defense Medical Center, priority 2012, dated 2014)
